Where two headings read alike, the source gives them in different places.
Assays:
[1] = test system: Erysiphe graminis tritici (powdery mildew); test: Test 1 greenhouse foliar spray screen, powdery mildew on wheat; type: in vivo; conditions: for pest or weed control at 400 ppm: Blumeria graminis, foliar, Test 1, foliar spray on wheat, disease control rating at 400 ppm / 100 ppm, read-out: POWD MDEW
[2] = test system: Pyricularia oryzae (rice blast); test: whole plant or invertebrate; type: in vivo; conditions: for pest or weed control at 400 ppm: Pyricularia oryzae, foliar, read-out: RICE BLAST, Test 1, foliar spray on rice, disease control rating at 400 ppm / 100 ppm
[3] = test system: Puccinia recondita tritici (leaf rust); test: Test 1 greenhouse foliar spray screen, leaf rust on wheat; type: in vivo; conditions: for pest or weed control at 400 ppm: Puccinia recondita, foliar, Test 1, foliar spray on wheat, disease control rating at 400 ppm / 100 ppm
[4] = test system: Botrytis cinerea (gray mold); test: Test 1 greenhouse foliar spray screen, gray mold on grape berries; type: in vivo; conditions: for pest or weed control at 400 ppm: Botrytis cinerea, foliar, Test 1, spray on grape berries, disease control rating at 400 ppm / 100 ppm
[5] = test system: Pseudoperonospora cubensis (downy mildew); test: Test 1 greenhouse foliar spray screen, downy mildew on squash; type: in vivo; conditions: for pest or weed control at 400 ppm: Pseudoperonospora cubensis, foliar, Test 1, foliar spray on squash, disease control rating at 400 ppm / 100 ppm, read-out: DOWN MDEW; for activity against downy mildew: summary statement in the description
[6] = test system: Cercospora beticola (leaf spot); test: Test 1 greenhouse foliar spray screen, leaf spot on sugar beet; type: in vivo; conditions: for pest or weed control at 400 ppm: Cercospora beticola, Test 1, foliar spray on sugar beet, disease control rating at 400 ppm / 100 ppm
[7] = test system: Venturia inaequalis (apple scab); test: Test 1 greenhouse foliar spray screen, apple scab on apple seedling; type: in vivo; conditions: for pest or weed control at 400 ppm: Venturia inaequalis, Test 1, foliar spray on apple seedling, disease control rating at 400 ppm / 100 ppm, read-out: APPL SCAB
[8] = test system: Septoria tritici (leaf blotch); test: Test 1 greenhouse foliar spray screen, leaf blotch on wheat; type: in vivo; conditions: for pest or weed control at 400 ppm: Zymoseptoria tritici, Test 1, foliar spray on wheat, disease control rating at 400 ppm / 100 ppm, read-out: LEAF BLOT
[9] = test system: plant pathogens; test: Fungicidal efficacy against a broad spectrum of plant pathogens (summary of screen); type: in vivo; conditions: summary statement in the description
[10] = test system: southern armyworm (Spodopetra eridania Cramer); test: Mite/insect screen, SAW; type: in vivo; conditions: Spodoptera eridania, percent mortality, read-out: SAW RESULTS %; for mortality at 200 ppm: rate 200 ppm
How it was run: (§1)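 Read-out: percent mortality after standard exposure periods. Test solutions were water dilutions of compound dissolved in acetone/alcohol (50:50) with emulsifier blends; leaves were sprayed to runoff on both surfaces and air-dried for one hour before exposure.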

[11] = test system: Twospotted spider mites (Tetranychus urticae Koch); test: Mite/insect screen, SM; type: in vivo; conditions: for mortality at 200 ppm / mortality at 400 ppm: Tetranychus urticae, percent mortality, read-out: SM RESULTS %; for mortality at 200 ppm: rate 200 ppm
How it was run: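 Foliar spray to runoff (10 psi), 1 h drying; aqueous dilutions from acetone/alcohol emulsifier stock. Mortality (%) after standard exposure.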

[12] = test system: melon aphids (Aphis gossypii Glover); test: Mite/insect screen, MA; type: in vivo; conditions: Aphis gossypii, percent mortality, read-out: MA RESULTS %; for mortality at 200 ppm: rate 200 ppm
How it was run: as §1

[13] = test system: corn rootworm; test: Mite/insect screen, CRW; type: in vivo; conditions: percent mortality, read-out: CRW RESULTS %; for mortality at 12 ppm: CRW rate 12.00 ppm
How it was run: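 Read-out: % mortality after standard exposure. Formulation: acetone/alcohol (50:50) with emulsifiers at 23 g and 13 g per liter, water-diluted to final test levels.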

[14] = test system: CUCURBIT DOWNY MILDEW; test: Greenhouse combination test with known fungicide, foliar spray; conditions: 1-9 rating scale, time 4 hours
Method: (§2) The test compounds were formulated for application by dissolving 50 mg of the compound into 1.25 ml of solvent. The solvent was prepared by mixing 50 ml of "Tween 20" with 475 ml of acetone and 475 ml of ethanol. The solvent/compound solution was diluted to 125 ml with deionized water. The resulting formulation contains 400 ppm test chemical. Lower concentrations were obtained by serial dilution with the solvent-surfactant mixture.
(§3) The formulated technical compounds were sprayed on all foliar surfaces of the host plants (or cut berry) to past run-off. Single pots of each host plant were placed on raised, revolving pedestals in a fume hood. Test solutions were sprayed on all foliar surfaces. All treatments were allowed to dry and the plants were inoculated with the appropriate pathogens within 2-4 hours.
(§4) In the tables, the time given under "Time in hours" is the number of hours elapsing between treatment and inoculation. […] In such cases, curative activity was being tested. […] In such cases, residual or protectant activity was tested. […] The results were evaluated on a 1-9 rating scale. These ratings represent the following percent disease control: 1 = 0-19%, 2 = 20-29%, 3 = 30-39%, 4 = 40-59%, 5 = 60-74%, 6 = 75-89%, 7 = 90-96%, 8 = 97-99%, and 9 = 100%.

[15] = test system: CUCURBIT POWDERY MILDEW; test: as above; conditions: 1-9 rating scale, time 4 hours
Method: as §2, §3, §4

[16] = foliar, rate 400 ppm, foliar spray on squash
[17] = disease control rating, foliar spray on wheat, 400 ppm (+++ at 100 ppm)
[18] = summary statement in the description

COc1ccccc1CCOc1ccnc2c(F)cccc12 [Example 228, 8-fluoro-4-[2-(2-methoxyphenyl)ethoxy]quinoline]
pest or weed control at 400 ppm [1]: 90 to 100% | pest or weed control at 400 ppm [2]: 90 to 100% | pest or weed control at 400 ppm [3]: 90 to 100% | pest or weed control at 400 ppm [4]: 0 to 19% | pest or weed control at 400 ppm [5]: 90 to 100% | pest or weed control at 400 ppm [6]: 20 to 89% | pest or weed control at 400 ppm [7]: 90 to 100% | pest or weed control at 400 ppm [8]: 90 to 100% | activity against a broad spectrum of plant pathogens [9]: particularly excellent activity | mortality at 200 ppm ([10]; foliar, foliar spray on squash): 0% | mortality at 400 ppm [10, 16]: 0% | mortality at 200 ppm ([11]; foliar, foliar spray on squash): 0% | mortality at 400 ppm [11, 16]: 0% | mortality at 200 ppm ([12]; foliar, foliar spray on squash): 0% | mortality at 400 ppm [12, 16]: 80% | mortality at 12 ppm [13]: 0% | mortality at 24 ppm ([13]; CRW rate 24.00 ppm): 0%

Cc1ccc(CCOc2ccnc3ccccc23)cc1 [Example 210, 4-[2-(4-methylphenyl)ethoxy]quinoline]
pest or weed control at 400 ppm [1]: 90 to 100% | pest or weed control at 400 ppm [2]: 90 to 100% | pest or weed control at 400 ppm [3]: 90 to 100% | pest or weed control at 400 ppm [4]: 0 to 19% | pest or weed control at 400 ppm [5]: 90 to 100% | activity against downy mildew [5]: particularly excellent activity | pest or weed control at 400 ppm [6]: 20 to 89% | pest or weed control at 400 ppm [7]: 0 to 19% | pest or weed control at 400 ppm [8]: 90 to 100% | activity against a broad spectrum of plant pathogens [9]: particularly excellent activity | mortality at 200 ppm ([10]; foliar, foliar spray on squash): 0% | mortality at 200 ppm ([11]; foliar, foliar spray on squash): 0% | mortality at 200 ppm ([12]; foliar, foliar spray on squash): 0% | mortality at 12 ppm [13]: 0%

OC(c1ccc(F)cc1)(c1cncnc1)c1ccccc1Cl (stereo not shown) [nuarimol, reference compound]
RESULTS ([14]; nuarimol alone 0.25 ppm): 1.0 | RESULTS ([14]; nuarimol alone 0.50 ppm): 1.0 | RESULTS ([14]; nuarimol alone 1.00 ppm): 1.0 | RESULTS ([14]; nuarimol alone 2.00 ppm): 1.0 | RESULTS ([15]; nuarimol alone 0.25 ppm): 6.0 | RESULTS ([15]; nuarimol alone 0.50 ppm): 7.0 | RESULTS ([15]; nuarimol alone 1.00 ppm): 8.0 | RESULTS ([15]; nuarimol alone 2.00 ppm): 9.0

CC(C)c1ccc(CCNc2ccnc3c(F)cccc23)cc1 [Example 114, N-[2-[4-(i-propyl)phenyl]ethyl]-8-fluoro-4-quinolinamine]
POWD MDEW [1, 17]: +++ (90-100% control at 100 ppm) | RICE BLAST ([2]; disease control rating, foliar spray on rice, 400 ppm (+++ at 100 ppm)): +++ (90-100% control at 100 ppm) | activity against rice blast [2, 18]: particularly excellent activity | LEAF RUST [3, 17]: +++ (90-100% control at 100 ppm) | GRAY MOLD ([4]; disease control rating, spray on grape berries, 400 ppm (+++ at 100 ppm)): - (0-19% control at 400 ppm) | DOWN MDEW ([5]; disease control rating, foliar spray on squash, 400 ppm (+++ at 100 ppm)): +++ (90-100% control at 100 ppm) | activity against downy mildew [5]: particularly excellent activity | LEAF SPOT ([6]; disease control rating, foliar spray on sugar beet, 400 ppm (+++ at 100 ppm)): +++ (90-100% control at 100 ppm) | APPL SCAB ([7]; disease control rating, foliar spray on apple seedling, 400 ppm (+++ at 100 ppm)): - (0-19% control at 400 ppm) | LEAF BLOT [8, 17]: +++ (90-100% control at 100 ppm) | activity against a broad spectrum of plant pathogens [9]: particularly excellent activity | mortality at 400 ppm ([10]; SAW, SM & MA RATE 400 PPM): 70% | mortality at 400 ppm ([11]; SAW, SM & MA RATE 400 PPM): 100% | activity as miticides [11, 18]: particularly excellent activity | mortality at 400 ppm ([12]; SAW, SM & MA RATE 400 PPM): 30% | mortality at 24 ppm ([13]; CRW RATE 24.00 PPM): 0%
